Results on 12 molecules are retold here after publication PMC6270666, “Flavonoids with M1 Muscarinic Acetylcholine Receptor Binding Activity” (Molecules, 2014).

One data set addresses T1, cloned human M1 mAChRs (Homo sapiens, UniProt P11229).
T1 construct: purchased Perkin Elmer; host or cells: stably transfected CHO-K1 cell lines (membrane preparation)
T1 sequence (P11229 1-460): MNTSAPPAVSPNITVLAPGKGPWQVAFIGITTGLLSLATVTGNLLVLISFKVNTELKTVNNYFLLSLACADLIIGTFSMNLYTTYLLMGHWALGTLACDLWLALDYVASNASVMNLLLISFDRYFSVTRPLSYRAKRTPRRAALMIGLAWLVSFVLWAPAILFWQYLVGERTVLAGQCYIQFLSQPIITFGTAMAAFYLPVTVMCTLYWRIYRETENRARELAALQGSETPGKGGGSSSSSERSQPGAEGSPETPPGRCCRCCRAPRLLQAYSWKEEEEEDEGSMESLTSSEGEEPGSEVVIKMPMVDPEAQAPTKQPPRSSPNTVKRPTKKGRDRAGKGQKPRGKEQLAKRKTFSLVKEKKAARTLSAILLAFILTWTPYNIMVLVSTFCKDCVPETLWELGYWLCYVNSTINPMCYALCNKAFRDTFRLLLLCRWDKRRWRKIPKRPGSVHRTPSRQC
Nature of the data set: M1 mAChR radioligand binding assay ([3H]N-methylscopolamine displacement).

The test system of data set [1] is SH-SY5Y neuroblastoma cells. To be noted: cited from earlier work.
In data set [2] the test system is amyloid β25-35 peptide-induced toxicity in mice. To be noted: cited from earlier work.
Data set [3] relates to streptozotocin-induced diabetic rats. Also on record: method as in PMID 23415807. To be noted: cited from earlier work.
A further data set concerns cholinesterase. Also on record: method as in PMID 20030514. To be noted: cited from earlier work.
In another data set the test system is CLK1. Further details: method as in PMID 22673832. To be noted: cited from earlier work.
For the next data set, the system named is DYRK1A. Also on record: method as in PMID 22673832. To be noted: cited from earlier work.
[4] abbreviates: displacement of [3H]N-methylscopolamine 0.2 nM, M1 mAChR membranes from CHO-K1 cells, 27 °C, 120 min, mean ± SEM (n = 2), read-out: IC50.
Setting [5] is: Cheng-Prusoff from IC50, [3H]N-methylscopolamine 0.2 nM, M1 mAChR membranes from CHO-K1 cells, mean ± SEM (n = 2), read-out: Ki.

Where two headings read alike, the source gives them in different places.

Broadly, the IC50 is the concentration needed to halve the response being measured. What is called melting point is the temperature of the solid-liquid transition. The Ki is the equilibrium dissociation constant of an inhibitor or competing ligand from its target.

Consider `COc1cc(OC)c2c(=O)cc(-c3ccc(OC)c(OC)c3)oc2c1` [Compound 1, 3',4',5,7-Tetramethoxyflavone], for which the IC50 on cloned human M1 mAChRs is more than 10000 µM.

On to `COc1cc(OC)c2c(=O)cc(-c3cc(OC)c(OC)c(OC)c3)oc2c1` [Compound 2, 3',4',5',5,7-Pentamethoxyflavone], for which the melting point was 195 °C. On cloned human M1 mAChRs (setting [4]), the IC50 is more than 10000 µM.

For `COc1ccc(-c2cc(=O)c3c(OC)c(OC)c(OC)cc3o2)cc1OC` [Compound 3, 3',4',5,6,7-Pentamethoxyflavone], on cloned human M1 mAChRs (setting [4]), the IC50 is more than 10000 µM.

Consider `COc1cc(-c2cc(=O)c3c(OC)c(OC)c(OC)cc3o2)cc(OC)c1OC` [Compound 4, 3',4',5',5,6,7-Hexamethoxyflavone], for which the Ki on cloned human M1 mAChRs (setting [5]) came to 107 ± 11 µM. Further, on cloned human M1 mAChRs (setting [4]), the half-inhibitory concentration (IC50) was 257 ± 27 µM.

For the molecule `O=c1cc(-c2ccc(O)cc2)oc2cc(O)cc(O)c12` [Compound 5, Apigenin], the IC50 on cloned human M1 mAChRs was more than 10000 µM.

On to `O=c1cc(-c2ccc(O)c(O)c2)oc2cc(O)cc(O)c12` [Compound 6, Luteolin], for which the “effect on hydrogen peroxide-induced apoptosis” value in data set [1] is listed as “protective effects”. At cloned human M1 mAChRs, the IC50 was 226 ± 14 µM and the Ki was 94 ± 6 µM. Besides, in data set [2], the “effect against amyloid β25-35 peptide-induced toxicity” value is recorded as “anti-amnesic effects”. The “effect on cognitive decline” value in data set [3] is listed as “attenuation of cognitive decline”. The cholinesterase inhibitory activity result in the data set on cholinesterase is “cholinesterase inhibitory activity”.

As to `O=c1c(O)c(-c2ccc(O)c(O)c2)oc2cc(O)ccc12` [Compound 8, Fisetin], the IC50 on cloned human M1 mAChRs (setting [4]) is more than 10000 µM.

As for `COc1cc(O)c2c(=O)c(O)c(-c3ccc(OC)c(O)c3)oc2c1` [Compound 9, 3ʹ,3,5-Trihydroxy-4ʹ,7-dimethoxyflavone], the “inhibition of CLK1 kinase” value in the data set on CLK1 is on record as “potent inhibitor”. In addition, the Ki at cloned human M1 mAChRs (setting [5]) worked out at 42 ± 3 µM. Besides, the IC50 on cloned human M1 mAChRs (setting [4]) came to 101 ± 6 µM. In addition, the “inhibition of DYRK1A kinase” value with DYRK1A was “potent inhibitor”.

For the molecule `COc1ccc(-c2oc3cc(OC)c(OC)cc3c(=O)c2O)cc1OC` [Compound 10, 3-Hydroxy-3ʹ,4ʹ,6,7-tetramethoxyflavone], the melting point fell in the range of 225 to 226 °C. Further, the IC50 on cloned human M1 mAChRs (setting [4]) is more than 10000 µM.

Regarding `O=c1c(O)c(-c2ccc(O)cc2)oc2cc(O)cc(O)c12` [Compound 11, Kaempferol], the IC50 at cloned human M1 mAChRs (setting [4]) was more than 10000 µM.

`O=c1c(O)c(-c2ccc(O)c(O)c2)oc2cc(O)cc(O)c12` [Compound 12, Quercetin]: the IC50 on cloned human M1 mAChRs (setting [4]) was more than 10000 µM.

For the molecule `O=c1c(O)c(-c2cc(O)c(O)c(O)c2)oc2cc(O)cc(O)c12` [Compound 13, Myricetin], the IC50 at cloned human M1 mAChRs was more than 10000 µM.
